The supplement of paper PMC6045584
± gives the standard deviation of the averaged measurements.

Legend:
[1] = compound: CCN(CC)CCCCNc1ncc2cc(-c3cc(OC)cc(OC)c3)c(NC(=O)NC(C)(C)C)nc2n1; assay: surviving fraction relative to DMSO-only wells; higher = less growth inhibition; conditions: exposure time: 5 days
In short: (§1)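 Five days of continuous inhibitor exposure, at 0.5, 1, 5, 10, 50, 100, 500 and 1000 nM, followed a 24-hour period after log-phase tumour cell lines were seeded at 250–500 cells per well in 384-well plates. Surviving fraction was derived from CellTiter-Glo luminescence relative to the median of DMSO-only wells. Plates were read after 10 minutes at room temperature, and lines screened three times were kept only if replicate Pearson r >0.7 and median Z' >0.3.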

2-METHOXYESTRADIOL = compound: COc1cc2c(cc1O)CC[C@@H]1[C@@H]2CC[C@]2(C)[C@@H](O)CC[C@@H]12 [2-METHOXYESTRADIOL]; assay: as above; conditions: exposure time: 5 days
In short: as §1

| Test System | surviving fraction ([1]; 0.5 nM) | surviving fraction ([1]; 1 nM) | surviving fraction ([1]; 5 nM) | surviving fraction ([1]; 10 nM) | surviving fraction ([1]; 50 nM) | surviving fraction ([1]; 100 nM) | surviving fraction ([1]; 500 nM) | surviving fraction ([1]; 1000 nM) | surviving fraction (2-METHOXYESTRADIOL; 0.5 nM) | surviving fraction (2-METHOXYESTRADIOL; 1 nM) | surviving fraction (2-METHOXYESTRADIOL; 5 nM) | surviving fraction (2-METHOXYESTRADIOL; 10 nM) | surviving fraction (2-METHOXYESTRADIOL; 50 nM) | surviving fraction (2-METHOXYESTRADIOL; 100 nM) | surviving fraction (2-METHOXYESTRADIOL; 500 nM) | surviving fraction (2-METHOXYESTRADIOL; 1000 nM) |
| --- | --- | --- | --- | --- | --- | --- | --- | --- | --- | --- | --- | --- | --- | --- | --- | --- |
| HSSYII SYNOVIAL | 0.799 ± 0.027 | 0.9 ± 0.044 | 0.886 ± 0.029 | 0.784 ± 0.05 | 0.475 ± 0.013 | 0.402 ± 0.007 | 0.274 ± 0.005 | 0.26 ± 0.0082 | 0.901 ± 0.024 | 0.926 ± 0.01 | 0.923 ± 0.043 | 0.997 ± 0.046 | 0.915 ± 0.018 | 0.764 ± 0.013 | 0.139 ± 0.0043 | 0.0593 ± 0.0049 |
| HT1080 SOFT TISSUE | 1.036 ± 0.009 | 1.03 ± 0.024 | 1.02 ± 0.046 | 1 ± 0.025 | 1.03 ± 0.021 | 1.01 ± 0.021 | 1.03 ± 0.059 | 1.07 ± 0.029 | 1.01 ± 0.011 | 1.02 ± 0.018 | 1.05 ± 0.016 | 0.987 ± 0.058 | 1.01 ± 0.043 | 0.999 ± 0.033 | 0.756 ± 0.049 | 0.313 ± 0.028 |
| HU09 BONE | 1 ± 0.045 | 1.01 ± 0.047 | 0.928 ± 0.028 | 1.02 ± 0.12 | 0.942 ± 0.061 | 0.921 ± 0.072 | 0.72 ± 0.011 | 0.715 ± 0.065 | 1.02 ± 0.055 | 0.959 ± 0.03 | 1.02 ± 0.024 | 1.1 ± 0.1 | 1.12 ± 0.081 | 1.08 ± 0.095 | 0.512 ± 0.015 | 0.159 ± 0.029 |
| HUO3N1 BONE | 0.996 ± 0.074 | 0.993 ± 0.047 | 1.04 ± 0.052 | 0.999 ± 0.043 | 0.9503 ± 0.0051 | 0.906 ± 0.055 | 0.727 ± 0.04 | 0.69 ± 0.013 | 1.01 ± 0.012 | 0.994 ± 0.037 | 1.05 ± 0.05 | 1.03 ± 0.057 | 1.07 ± 0.022 | 1.02 ± 0.041 | 0.87 ± 0.059 | 0.537 ± 0.03 |
| JIMT1 BREAST | 0.964 ± 0.028 | 0.951 ± 0.04 | 0.967 ± 0.054 | 1.01 ± 0.037 | 1.02 ± 0.011 | 1.03 ± 0.042 | 0.989 ± 0.031 | 1.02 ± 0.025 | 0.985 ± 0.032 | 1.04 ± 0.029 | 1.03 ± 0.023 | 1 ± 0.031 | 1.09 ± 0.013 | 1.05 ± 0.021 | 0.762 ± 0.053 | 0.403 ± 0.045 |
| JURKAT HAEMATOPOIETIC AND LYMPHOID TISSUE | 1.03 ± 0.042 | 1.08 ± 0.015 | 1.04 ± 0.022 | 1.055 ± 0.0052 | 1 ± 0.039 | 1.05 ± 0.02 | 1.02 ± 0.021 | 1.07 ± 0.021 | 1.08 ± 0.021 | 1.08 ± 0.014 | 1.03 ± 0.005 | 1.02 ± 0.033 | 1.02 ± 0.032 | 0.993 ± 0.016 | 0.043 ± 0.001 | 0.042 ± 0.001 |
| KPD BONE | 0.978 ± 0.07 | 1.02 ± 0.033 | 1 ± 0.049 | 1.01 ± 0.12 | 1.02 ± 0.039 | 0.97 ± 0.058 | 0.925 ± 0.025 | 0.884 ± 0.058 | 0.992 ± 0.043 | 0.964 ± 0.04 | 1.02 ± 0.066 | 1.03 ± 0.014 | 1.08 ± 0.031 | 1.07 ± 0.024 | 0.784 ± 0.047 | 0.551 ± 0.026 |
| LM7 BONE | 0.989 ± 0.039 | 0.966 ± 0.075 | 1.08 ± 0.13 | 1.07 ± 0.069 | 1.01 ± 0.043 | 1.13 ± 0.24 | 0.869 ± 0.075 | 0.739 ± 0.11 | 0.969 ± 0.063 | 1.03 ± 0.016 | 1.06 ± 0.022 | 1.01 ± 0.056 | 1.12 ± 0.077 | 1.03 ± 0.13 | 0.5347 ± 0.0023 | 0.264 ± 0.024 |
| LNCAP PROSTATE | 0.864 ± 0.066 | 0.878 ± 0.1 | 0.7647 ± 0.0046 | 0.922 ± 0.16 | 0.898 ± 0.11 | 0.934 ± 0.11 | 0.933 ± 0.11 | 1.03 ± 0.026 | 1.01 ± 0.039 | 0.922 ± 0.039 | 0.975 ± 0.094 | 0.901 ± 0.092 | 0.884 ± 0.13 | 0.809 ± 0.091 | 0.681 ± 0.033 | 0.208 ± 0.0072 |
| MCF7 BREAST | 0.884 ± 0.024 | 0.868 ± 0.063 | 0.864 ± 0.03 | 0.877 ± 0.068 | 0.878 ± 0.04 | 0.861 ± 0.038 | 0.878 ± 0.042 | 0.908 ± 0.069 | 0.846 ± 0.015 | 0.837 ± 0.017 | 0.857 ± 0.0097 | 0.8506 ± 0.0053 | 0.903 ± 0.027 | 0.924 ± 0.083 | 0.943 ± 0.048 | 0.685 ± 0.086 |
